The record followed here is patent US20080293712A1, “Benzo[C][2,7]Naphtyridine Derivatives, Methods of Making Thereof and Methods of Use Thereof” (WYETH, priority 2007, published 2008).

In this experiment the target is T1, PDK-1 (Homo sapiens, UniProt O15530).
T1 sequence (O15530 1-556): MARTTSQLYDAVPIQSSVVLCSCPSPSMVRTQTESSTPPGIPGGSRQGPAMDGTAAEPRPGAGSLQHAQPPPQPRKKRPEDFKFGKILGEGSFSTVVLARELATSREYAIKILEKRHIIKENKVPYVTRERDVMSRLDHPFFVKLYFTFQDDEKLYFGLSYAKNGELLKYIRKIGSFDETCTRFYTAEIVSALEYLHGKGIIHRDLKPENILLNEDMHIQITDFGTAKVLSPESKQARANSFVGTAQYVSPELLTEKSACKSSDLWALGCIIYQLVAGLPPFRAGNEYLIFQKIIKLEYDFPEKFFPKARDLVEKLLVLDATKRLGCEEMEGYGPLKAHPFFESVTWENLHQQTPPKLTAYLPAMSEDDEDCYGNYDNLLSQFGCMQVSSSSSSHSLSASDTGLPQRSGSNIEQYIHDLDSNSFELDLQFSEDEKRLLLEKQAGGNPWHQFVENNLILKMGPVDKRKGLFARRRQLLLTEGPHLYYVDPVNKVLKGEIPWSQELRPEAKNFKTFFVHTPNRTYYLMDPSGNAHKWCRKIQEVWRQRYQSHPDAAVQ
In words: PDK-1 kinase inhibition ELISA assay (phosphorylation of His6-tagged SGK1 S422D by PDK-1). It counts as biochemical. The conditions noted are these: PDK-1 ELISA, Table 11; read-out: Average IC50. (In general: An ELISA detects its analyte on a solid surface through an enzyme-linked reagent.)

A word on the IC50: it is the midpoint of a concentration-inhibition curve. As to `COc1cc2ncc3c(N)nc(-c4cncc(OC[C@@H](N)CN5CCC(=O)CC5)c4)cc3c2cc1OC` [Ib-4, 1-[(2S)-2-amino-3-{[5-(4-amino-8,9-dimethoxybenzo[c]-2,7-naphthyridin-2-yl)pyridin-3-yl]oxy}propyl]piperidin-4-one], the IC50 was 29 nM. The value for `CCOC1(OCC)CCN(C[C@H](N)COc2cncc(-c3cc4c(cnc5cc(OC)c(OC)cc54)c(N)n3)c2)CC1` [Ib-5, 2-(5-{[(2S)-2-amino-3-(4,4-diethoxypiperidin-1-yl)propyl]oxy}pyridin-3-yl)-8,9-dimethoxybenzo[c]-2,7-naphthyridin-4-amine] was 26 nM; that for `COc1cc2ncc3c(N)nc(-c4cncc(OC[C@@H](N)CN(C)Cc5cccnc5)c4)cc3c2cc1OC` [Ib-6, (2S)-3-{[5-(4-amino-8,9-dimethoxybenzo[c]-2,7-naphthyridin-2-yl)pyridin-3-yl]oxy}-N1-methyl-N1-(pyridin-3-ylmethyl)propane-1,2-diamine] was 4 nM; that for `COc1cc2ncc3c(N)nc(-c4cncc(OC[C@@H](N)COS(C)(=O)=O)c4)cc3c2cc1OC` [Ib-7, (2R)-2-Amino-3-{[5-(4-amino-8,9-dimethoxybenzo[c]-2,7-naphthyridin-2-yl)pyridin-3-yl]oxy}propyl methanesulfonate] was 16 nM. Under `COc1cc2ncc3c(N)nc(-c4cncc(OC[C@@H](N)CN(C)Cc5cccc(F)c5)c4)cc3c2cc1OC` [Ib-8, (2S)-3-{[5-(4-amino-8,9-dimethoxybenzo[c]-2,7-naphthyridin-2-yl)pyridin-3-yl]oxy}-N1-(3-fluorobenzyl)-N1-methylpropane-1,2-diamine] stands 5 nM; under `COc1cc2ncc3c(N)nc(-c4cncc(OC[C@@H](N)Cn5ccnc5)c4)cc3c2cc1OC` [Ib-9, 2-(5-{[(2S)-2-amino-3-(1H-imidazol-1-yl)propyl]oxy}pyridin-3-yl)-8,9-dimethoxybenzo[c]-2,7-naphthyridin-4-amine], 20 nM; under `COc1cc2ncc3c(N)nc(-c4cncc(OC[C@@H](N)CO)c4)cc3c2cc1OC` [Ib-10, (2S)-2-amino-3-{[5-(4-amino-8,9-dimethoxybenzo[c]-2,7-naphthyridin-2-yl)pyridin-3-yl]oxy}propan-1-ol], 6 nM. Under `COc1cc2ncc3c(N)nc(-c4cncc(OCCN)c4)cc3c2cc1OC` [Ib-11, 2-(5-(2-aminoethoxy)pyridin-3-yl)-8,9-dimethoxybenzo [c][2,7]naphthyridin-4-amine] stands 5 nM.

Consider `COc1cc2ncc3c(N)nc(-c4cncc(OC[C@@H](N)Cc5c[nH]c6ccccc56)c4)cc3c2cc1OC` [Ib-13, 2-(5-{[(2S)-2-amino-3-(1H-indol-3-yl)propyl]oxy}pyridin-3-yl)-8,9-dimethoxybenzo[c]-2,7-naphthyridin-4-amine], for which the IC50 is 6 nM.

Turning to `CC[C@H](N)COc1cncc(-c2cc3c(cnc4cc(OC)c(OC)cc43)c(N)n2)c1` [Ib-14, 2-(5-{[(2S)-2-aminobutyl]oxy}pyridin-3-yl)-8,9-dimethoxybenzo[c]-2,7-naphthyridin-4-amine], the IC50 worked out at 6 nM.

As to `COc1cc2ncc3c(N)nc(-c4cncc(Br)c4)cc3c2cc1OC` [Ib-15, 2-(5-bromopyridin-3-yl)-8,9-dimethoxybenzo[c]-2,7-naphthyridin-4-amine], the IC50 is 66 nM. Consider `COc1cc2ncc3c(N)nc(-c4cncc(OC[C@@H](Cc5ccccc5)NC=O)c4)cc3c2cc1OC` [Ib-16, N-((1R)-2-{[5-(4-amino-8,9-dimethoxybenzo[c]-2,7-naphthyridin-2-yl)pyridin-3-yl]oxy}-1-benzylethyl)formamide], for which the IC50 was 38 nM. Under `CC[C@@H](N)COc1cncc(-c2cc3c(cnc4cc(OC)c(OC)cc43)c(N)n2)c1` [Ib-18, 2-(5-{[(2R)-2-aminobutyl]oxy}pyridin-3-yl)-8,9-dimethoxybenzo[c]-2,7-naphthyridin-4-amine] stands 2 nM. `COc1cc2ncc3c(N)nc(-c4cncc(OC[C@@H](N)Cc5ccc(N)cc5)c4)cc3c2cc1OC` [Ib-19, 2-(5-{[(2S)-2-amino-3-(4-aminophenyl)propyl]oxy}pyridin-3-yl)-8,9-dimethoxybenzo[c]-2,7-naphthyridin-4-amine]: the IC50 is 81 nM. Under `COc1cc2ncc3c(N)nc(-c4cncc(OC[C@@H](N)CN5CCN(c6ccccn6)CC5)c4)cc3c2cc1OC` [Ib-20, 2-(5-{[(2S)-2-amino-3-(4-pyridin-2-ylpiperazin-1-yl)propyl]oxy}pyridin-3-yl)-8,9-dimethoxybenzo[c]-2,7-naphthyridin-4-amine] stands 66 nM. Under `CCN(Cc1ccncc1)C[C@H](N)COc1cncc(-c2cc3c(cnc4cc(OC)c(OC)cc43)c(N)n2)c1` [Ib-21, (2S)-3-{[5-(4-amino-8,9-dimethoxybenzo[c]-2,7-naphthyridin-2-yl)pyridin-3-yl]oxy}-N1-ethyl-N1-(pyridin-4-ylmethyl)propane-1,2-diamine] stands 7 nM; under `COc1cc2ncc3c(N)nc(-c4cncc(C#CCN(C)[C@H](C)Cc5ccccc5)c4)cc3c2cc1OC` [Ib-22, 8,9-Dimethoxy-2-[5-(3-{methyl[(1R)-1-methyl-2-phenylethyl]amino}prop-1-yn-1-yl)pyridin-3-yl]benzo[c]-2,7-naphthyridin-4-amine], over 100 nM; under `COc1cc2ncc3c(N)nc(-c4cccnc4C)cc3c2cc1OC` [Ib-60], 532 nM. Regarding `COc1cc2ncc3c(N)nc(N(C)Cc4cccnc4)cc3c2cc1OC` [Ib-64, 8,9-dimethoxy-N^2-methyl-N^2-(pyridin-3-ylmethyl)benzo[c]-2,7-naphthyridine-2,4-diamine], the IC50 amounted to 3580 nM. Under `COc1cc2ncc3c(N)nc(N4CC[C@@H](O)C4)cc3c2cc1OC` [Ib-65, (3R)-1-(4-amino-8,9-dimethoxybenzo[c]-2,7-naphthyridin-2-yl)pyrrolidin-3-ol] stands 4610 nM.

Regarding `COc1cc2ncc3c(N)nc(N4CC[C@@H](N(C)C)C4)cc3c2cc1OC` [Ib-66, 2-[(3R)-3-(dimethylamino)pyrrolidin-1-yl]-8,9-dimethoxybenzo[c]-2,7-naphthyridin-4-amine], the half-inhibitory concentration (IC50) stood at 4970 nM. Turning to `COc1cc2ncc3c(N)nc(N4CC[C@H](N(C)C)C4)cc3c2cc1OC` [Ib-67, 2-[(3S)-3-(dimethylamino)pyrrolidin-1-yl]-8,9-dimethoxybenzo[c]-2,7-naphthyridin-4-amine], the IC50 was found to be 9640 nM. The value for `COc1cc2ncc3c(N)nc(N4CC[C@H](O)C4)cc3c2cc1OC` [Ib-68, (3S)-1-(4-amino-8,9-dimethoxybenzo[c]-2,7-naphthyridin-2-yl)pyrrolidin-3-ol] was 4120 nM; that for `CCNCCOc1cncc(-c2cc3c(cnc4cc(OC)c(OC)cc43)c(N)n2)c1` [Ib-73, 2-(5-(2-(ethylamino)ethoxy)pyridin-3-yl)-8,9-dimethoxybenzo[c][2,7]naphthyridin-4-amine] was 46.5 nM; that for `COc1cc2ncc3c(N)nc(-c4cccc(C(=O)O)c4)cc3c2cc1OC` [Ib-76, 3-(4-amino-8,9-dimethoxybenzo[c][2,7]naphthyridin-2-yl)benzoic acid] was 524 nM. The value for `CCCCN(C[C@H](N)COc1cncc(-c2cc3c(cnc4cc(OC)c(OC)cc43)c(N)n2)c1)S(=O)(=O)c1ccccc1` [Ib-77, N-[(2S)-2-amino-3-{[5-(4-amino-8,9-dimethoxybenzo[c][2,7]naphthyridin-2-yl)pyridin-3-yl]oxy}propyl]-N-butylbenzenesulfonamide] was 21 nM; that for `COc1cc2ncc3c(N)nc(-c4cncc(OC[C@@H](N)CN(C)S(=O)(=O)c5ccccc5)c4)cc3c2cc1OC` [Ib-79, N-[(2S)-2-amino-3-{[5-(4-amino-8,9-dimethoxybenzo[c][2,7]naphthyridin-2-yl)pyridin-3-yl]oxy}propyl]-N-methylbenzenesulfonamide] was 11 nM. `COc1cc2ncc3c(N)nc(-c4cncc(OC[C@@H](N)CNc5ccccc5)c4)cc3c2cc1OC` [Ib-80, (2S)-3-{[5-(4-amino-8,9-dimethoxybenzo[c][2,7]naphthyridin-2-yl)pyridin-3-yl]oxy}-N^1-phenylpropane-1,2-diamine]: the IC50 turned out to be 3 nM. The value for `COc1cc2ncc3c(N)nc(-c4cncc(OC[C@@H](N)CNc5ccc(C)c(F)c5)c4)cc3c2cc1OC` [Ib-81, (2S)-3-{[5-(4-amino-8,9-dimethoxybenzo[c][2,7]naphthyridin-2-yl)pyridin-3-yl]oxy}-N1-(3-fluoro-4-methylphenyl)propane-1,2-diamine] was 22 nM; that for `COc1cc2ncc3c(N)nc(-c4cncc(OC[C@@H](N)Cn5ccc(=N)cc5)c4)cc3c2cc1OC` [Ib-82, 2-(5-{[(2S)-2-amino-3-(4-iminopyridin-1(4H)-yl)propyl]oxy}pyridin-3-yl)-8,9-dimethoxybenzo[c][2,7]naphthyridin-4-amine] was 92 nM; that for `COc1cc2ncc3c(N)nc(-c4cncc(OC[C@@H](N)CN(C)c5cccc(F)c5)c4)cc3c2cc1OC` [Ib-83, (2S)-3-{[5-(4-amino-8,9-dimethoxybenzo[c][2,7]naphthyridin-2-yl)pyridin-3-yl]oxy}-N1-(3-fluorophenyl)-N1-methylpropane-1,2-diamine] was 5 nM.
